Experimental data: US20200368267A1, “PROPHYLACTIC AND/OR THERAPEUTIC AGENT FOR AMYOTROPHIC LATERAL SCLEROSIS” (KYOTO UNIVERSITY, priority 2017, published 2020)
Where a name gives a salt, the structure may show the parent alone.

test system: mutant SOD1 ALS MNs (ALS1); test: MN survival assay and high content analysis; type: cell-based, human; conditions: added to MNs with bosutinib treatment
Method: (§1) iPS cell cells containing LNI cassette were dissociated into single cells using Accutase, and seeded together with 1 μg/ml of doxycycline (TAKARA, Kusatsu, Japan) in N3 medium containing 1 μM retinoic acid, 1 μM SAG, 10 ng/ml BDNF, 10 ng/ml GDNF, and 10 ng/ml NT-3 on a 96 well plate (BD Bioscience) coated with Matrigel. The cells were fixed and stained on days 7 and 14. The number of viable MNs stained with βIII-tubulin was quantified by IN Cell Analyzer 6000 and expressed as the number of day 14/day 7. […] In this assay, therefore, βIII-tubulin positive neurons were defined as MN. Neurite and cell body were detected by optimized fluorescence levels, and the number of cell bodies having neurite was counted as the number of surviving neurons using IN Cell Developer toolbox software 1.9.
Short interfering RNA (siRNA) was purchased from Life Technologies (siRNA ID of Src siRNA 1: s13414; siRNA ID of Src siRNA 2: s13413; siRNA ID of c-Abl siRNA 1: s866; siRNA ID of c-Abl siRNA 2: s864; siRNA ID of mTOR siRNA: s604). Scramble siRNA purchased from Life Technologies was used as a negative control of siRNA. iPS cells were dissociated and plated with dox in a 96 well plate. On day 7, siRNA was transfected with Lipofectamine RNAiMAX (Thermo Fisher Scientific). Viable MN was evaluated 4 days after transfection by immunostaining with βIII-tubulin, followed by analysis with IN Cell Analyzer 6000 and IN Cell Developer toolbox software 1.9.

| SMILES | effect of autophagy inhibitor on the protective effect of bosutinib in MN survival assay |
| --- | --- |
| CCN(CC)CCCC(C)Nc1ccnc2cc(Cl)ccc12 (centres unmarked) [chloroquine] | decreased the protective effect of bosutinib |

same assay, conditions: mutant SOD1 ALS MNs (ALS1); compound added day 7, counted day 14

| SMILES | MN survival |
| --- | --- |
| Cc1cn(-c2cc(NC(=O)c3ccc(C)c(Nc4nccc(-c5cccnc5)n4)c3)cc(C(F)(F)F)c2)cn1 [nilotinib] | increased MN survival |
| Cc1ccc(NC(=O)c2ccc(CN3CCN(C)CC3)cc2)cc1Nc1nccc(-c2cccnc2)n1 [imatinib] | increased MN survival |

test system: mutant SOD1 Tg mice; test: ALS model mouse (Tg-G93A SOD1 mouse); type: in vivo; conditions: 5 mg/kg intraperitoneal from 8th week for 5 weeks; mean±SD, n=26 per group; Kaplan-Meier

| SMILES | disease onset [days] | survival time [days] |
| --- | --- | --- |
| COc1cc(Nc2c(C#N)cnc3cc(OCCCN4CCN(C)CC4)c(OC)cc23)c(Cl)cc1Cl [bosutinib (SKI-606), bosutinib] | 123.2 ± 9.1 | 164.1 ± 9.4 |

test system: MNs with mutant SOD1 gene (L144FVX); test: Large scale screen using ALS MN (MN survival readout); type: cell-based, human; conditions: 50 μM, positive control assays
Method: as §1
iPS cell cells containing LNI cassette were dissociated into single cells using Accutase, and seeded together with 1 ng/ml of doxycycline in N3 medium containing 1 μM RA, 1 μM SAG, 10 ng/ml BDNF, 10 ng/ml GDNF and 10 ng/ml NT-3 on a 96 well plate (BD Bioscience) coated with Matrigel. The libraries used for drug screening were Microsource US Drugs (Microsource Discovery Systems), Microsource International Drugs (Microsource Discovery Systems), and kinase inhibitor purchased from EMD and Selleck Chemicals. Using Integrity and Nextbio data base, existing drugs and test drugs in clinical trials were selected from these libraries and used for throughput screening. […] DMSO was used as a negative control, and kenpaullone, which is a candidate drug for ALS treatment, was used as a positive control. The number of viable MNs stained with βIII-tubulin was quantified by IN Cell Analyzer 6000.

| SMILES | positive control effect on ALS MN survival |
| --- | --- |
| O=C1Cc2c([nH]c3ccc(Br)cc23)-c2ccccc2N1 [kenpaullone] | positive effect was confirmed |

same assay, conditions: compounds at final concentration 10 μM added on day 7, cells fixed and stained on day 14; viable MNs stained with βIII-tubulin

| SMILES | MN index |
| --- | --- |
| Cc1nc(Nc2ncc(C(=O)Nc3c(C)cccc3Cl)s2)cc(N2CCN(CCO)CC2)n1 [dasatinib] | 6.659 |
| CN(C)CCCn1cc(C2=C(c3c[nH]c4ccccc34)C(=O)NC2=O)c2ccccc21 [bisindolylmaleimide I] | 7.963 |
| CCN(CC)Cc1cc(Nc2ccnc3cc(Cl)ccc23)ccc1O [amodiaquine dihydrochloride] | 8.98 |
| Oc1ccc(O)cc1 [hydroquinone] | 7.957 |
| CCOc1ccn(-c2ccc(F)cc2)c(=O)c1C(=O)Nc1ccc(Oc2ccnc(N)c2Cl)c(F)c1 [BMS 777607] | 8.551 |
| O=C(c1ccc(/C=C/c2n[nH]c3ccccc23)cc1)N1CCNCC1 [KW 2449] | 7.722 |
| COc1cc(Nc2c(C#N)cnc3cc(OCCCN4CCN(C)CC4)c(OC)cc23)c(Cl)cc1Cl [bosutinib (SKI-606), bosutinib] | 7.196 |
| Cc1c(C)c2c(c(C)c1O)CCC(C)(CCCC(C)CCCC(C)CCCC(C)C)O2 (stereo not drawn) [alpha-tochopherol] | 9.456 |
| CCN(CCCCOC(=O)c1ccc(OC)c(OC)c1)C(C)Cc1ccc(OC)cc1 (centres unmarked) [mebeverine hydrochloride] | 6.856 |
| O=C(O)CCC(=O)c1ccc(-c2ccccc2)cc1 [fenbufen] | 7.224 |
| CC1(C)O[C@@H]2C[C@H]3[C@@H]4C[C@H](F)C5=CC(=O)C=C[C@]5(C)[C@H]4[C@@H](O)C[C@]3(C)[C@]2(C(=O)CO)O1 [flunisolide] | 7.857 |
| Cc1ccc(Nc2nccc(N(C)c3ccc4c(C)n(C)nc4c3)n2)cc1S(N)(=O)=O [pazopanib hydrochloride] | 9.533 |
| Cc1cc(Nc2cc(N3CCN(C)CC3)nc(Sc3ccc(NC(=O)C4CC4)cc3)n2)n[nH]1 [VX-680] | 9.578 |
| CN1CCc2cccc3c2[C@H]1Cc1ccc(O)c(O)c1-3 [apomorphine hydrochloride] | 7.257 |
| CNC(=O)c1ccccc1Sc1ccc2c(/C=C/c3ccccn3)n[nH]c2c1 [axitinib] | 7.353 |
| Cc1cc2nc3c(=O)[nH]c(=O)nc-3n(C[C@H](O)[C@H](O)[C@H](O)CO)c2cc1C [riboflavin] | 9.554 |
| CCCC1O[C@@H]2C[C@H]3[C@@H]4CCC5=CC(=O)C=C[C@]5(C)[C@H]4[C@@H](O)C[C@]3(C)[C@]2(C(=O)CO)O1 (some centres unmarked) [budesonide] | 10.27 |
| Cn1cc(C2=C(c3cn(C4CCN(Cc5ccccn5)CC4)c4ccccc34)C(=O)NC2=O)c2ccccc21 [enzastaurin] | 9.841 |
| COCCNCc1ccc(-c2cc3nccc(Oc4ccc(NC(=S)NC(=O)Cc5ccc(F)cc5)cc4F)c3s2)nc1 [MGCD-265] | 7.623 |
| COc1cc2nccc(Oc3ccc(NC(=O)Nc4cc(C)on4)c(Cl)c3)c2cc1OC [tivozanib] | 17.26 |
| COc1ccc2c(c1OC)C(=O)O[C@@H]2[C@H]1c2cc3c(cc2CCN1C)OCO3 [hydrastine (1R, 9S)] | 7.525 |
| CCN(CC)CCNC(=O)c1c(C)[nH]c(/C=C2\C(=O)Nc3ccc(F)cc32)c1C [sunitinib malate] | 8.133 |
| Cc1nc(N)sc1-c1ccnc(Nc2ccc(N3CCOCC3)cc2)n1 [CYC116] | 8.142 |
| O=C(/C=C/C=C/c1ccc2c(c1)OCO2)N1CCCCC1 [piperine] | 7.391 |
| CCCCOC(=O)c1ccc(N)cc1 [butamben] | 7.391 |
| C[C@@H](Oc1cc(-c2cnn(C3CCNCC3)c2)cnc1N)c1c(Cl)ccc(F)c1Cl [PF-2341066] | 7.595 |
